Consider 3 substances from patent US8859728B2, “Peptides that target dorsal root ganglion neurons” (Baylor College of Medicine, priority 2008, dated 2014).

For test [1], the system named is DRG neurons. Kind of test: In vivo binding of GST-peptide-fusion proteins to DRG neurons after subarachnoid injection. Conditions: L5 DRG; for NF-L-positive neurons positive for GST fusion protein: 5 μg into subarachnoid space, C57BL/6 mice, 1 h; for mean diameter of cells positive for GST fusion protein: in vivo, mean±SD. On the set-up: species or system mouse. An excerpt: To evaluate their binding to DRG cells in vivo, GST fusion proteins of three selected peptides were synthesized using the pGEX4T-1 vector kit (Amersham, Piscataway, N.J.) according to the manufacturer's instructions. Briefly, oligonucleotides for C-DRG1-C, C-DRG2-C, and C-DRG3-C were synthesized cloned into the pGEX4T-1 vector, and transformed in E. coli. The synthesized GST-fusion proteins were pull down by Glutathione Sepharose 4B (Amersham), and purified. The purities and reactions to anti-GST antibodies (Amersham) were confirmed by gel-electrophoresis stained by Coomassie Blue and anti-GST immunoblotting.
Under intraperitoneal pentobarbiturate anesthesia (0.1 mg/g BW), 10 μl (500 μg/ml) of purified GST-fusion proteins (GST-DRG1, GST-DRG2, GST-DRG3, or GST alone) were injected into the subarachnoid space of 8-week-old female C57BL/6 mice (n=3 each). After 1 h, the mice were sacrificed and transcardially perfused with cold saline followed by 4% paraformaldehyde, 0.5% glutaraldehyde and 0.3% picric acid in 0.1 M PBS (pH 7.4). The L5 DRGs were then isolated and cut sectioned (10 μm) for fluorescence immunohistochemistry. After blocking with 10% horse serum, the sections were incubated overnight at 4° C. with goat anti-GST antibody (Amersham) diluted 1:1000 and rabbit anti-neurofilament L (NF-L, non-phosphorylated form, Chemicon, Temecula, Calif.) antibody diluted 1:100 in PBST. The sections were incubated for 1 h with Alexa Fluor 488-labeled anti-goat IgG and Alexa Fluor 555-labeled anti-rabbit IgG (Molecular Probes, Eugene, Oreg.) at room temperature, mounted with VECTASHIELD mounting medium containing 4′,6-diamidino-2-phenylindole (DAPI) (Vector Laboratories Inc., Burlingame, Calif.), and observed under a fluorescence microscope (Axioplan 2 imaging and Axiocam, Carl Zeiss, Jena, Germany). For quantitative analysis, the inventors took pictures of randomly selected fields and measured diameters (long and short) of the cells positive for GST, NF-L and DAPI. The mean cell size was calculated as the mean of the long and short diameters, and cell-size differences were evaluated in the three different groups.

Test [2] deals with isolated DRG neurons. Kind of test: Double staining of isolated DRG neurons after incubation with DRG-p1 and GST-DRG3. Type of test: cell-based, mouse. Conditions: antibodies against phage and GST. An excerpt:
The Ph.D.-C7C Phage display Peptide Library kit expresses random 7-amino acid peptides fused to the minor coat protein (pIII) of the M13 phage. By sequence analysis, only 113 phage plaques were represented in the bound peptide, consistent with a very efficient selection process (Table 2). The final binding studies allowed identification of three phages (DRG1, DRG2, or DRG3) that occurred repeatedly. In specific embodiments of the invention, the efficient identification of these clones was the result of multiple rounds of positive and negative selection using the biopanning protocol (Liang et al., 2006), although in specific cases some of the other 84 clones (Table 2) are true DRG-binding peptide-phages. […] Moreover, the size specificity of target neurons for individual peptides was confirmed by in vivo binding experiments: GST-DRG1 and GST-DRG3 recognized small-sized neurons, and GST-DRG2 recognized large-sized neurons. Since both DRG1 and DRG3 recognized small sized neurons, two peptide ligands might bind to the same cell populations. Therefore, double staining was performed of isolated DRG neurons after the incubation with DRG-p1 and GST-DRG3 by antibodies against phage and GST, respectively. Double positive staining was obtained in 51% of DRG-p1-positive neurons, and was in 71% of GST-DRG3-positive neurons, respectively. […]

Where no end group is shown, it is not given here.

Regarding “GST-DRG1: GST fusion protein of peptide C-DRG1-C made with pGEX4T-1 in E. coli (CSPGARAFC; cysteine pairing not given here; also: GST fusion protein, GST not in chain)”, in test [1], the “NF-L-positive neurons positive for GST fusion protein” value is 39% and the “mean diameter of cells positive for GST fusion protein” value is 21.6±5.2 μm.
The corresponding values for “GST-DRG2: GST fusion protein of peptide C-DRG2-C made with pGEX4T-1 in E. coli (CDGPWRKMC; cysteine pairing not given here; also: GST fusion protein, GST not in chain)” are 25% and 33.5±7.4 μm.
Regarding “GST-DRG3: GST fusion protein of peptide C-DRG3-C made with pGEX4T-1 in E. coli (CFGQKASSC; cysteine pairing not given here; also: GST fusion protein, GST not in chain)”, in test [1], the “NF-L-positive neurons positive for GST fusion protein” value is 14% and the “mean diameter of cells positive for GST fusion protein” value is 22.7±6.6 μm. Besides, the “double positive staining (DRG-p1 and GST-DRG3) as share of neurons positive for the named ligand” value in test [2] is recorded as 71%.
